Among the data in patent publication US10273236B2, “Macrocyclic factor XIa inhibitors bearing heterocyclic groups” (Bristol-Myers Squibb Company, priority 2014, dated 2019) are Ki values, retold here.

Assay [1] deals with T1, purified human Factor XIa (Homo sapiens, UniProt P03951).
T1 construct: purchased Haematologic Technologies
Briefly: Factor XIa inhibition assay, chromogenic substrate S-2366 (Ki). Type of assay: biochemical. The method, then: (§1) The effectiveness of compounds of the present invention as inhibitors of the coagulation Factors XIa, VIIa, IXa, Xa, XIIa, plasma kallikrein or thrombin, can be determined using a relevant purified serine protease, respectively, and an appropriate synthetic substrate. The rate of hydrolysis of the chromogenic or fluorogenic substrate by the relevant serine protease was measured both in the absence and presence of compounds of the present invention. […] A decrease in the rate of absorbance or fluorescence change in the presence of inhibitor is indicative of enzyme inhibition. Such methods are known to one skilled in the art. The results of this assay are expressed as the inhibitory constant, Ki.
Factor XIa determinations were made in 50 mM HEPES buffer at pH 7.4 containing 145 mM NaCl, 5 mM KCl, and 0.1% PEG 8000 (polyethylene glycol; JT Baker or Fisher Scientific). Determinations were made using purified human Factor XIa at a final concentration of 25-200 pM (Haematologic Technologies) and the synthetic substrate S-2366 (pyroGlu-Pro-Arg-pNA; Chromogenix or AnaSpec) at a concentration of 0.0002-0.001 M.
(§2) Values of Ki were determined by allowing the protease to react with the substrate in the presence of the inhibitor.
(§3) Reactions were allowed to go for periods of 20-180 minutes (depending on the protease) and the velocities (rate of absorbance or fluorescence change versus time) were measured.
(§4) The following relationships were used to calculate Ki values: (Vmax*S)/(Km+S) (vo−vs)/vs=I/(Ki(1+S/Km)) for a competitive inhibitor with one binding site; or vs/vo=A+((B−A)/1+((IC50/(I)^n))); and Ki=IC50/(1+S/Km) for a competitive inhibitor where: […]

Assay [2] addresses T2, purified human plasma kallikrein (Homo sapiens, UniProt P03952).
T2 construct: Plasma prekallikrein is a zymogen of a trypsin-like serine protease; purchased Enzyme Research Laboratories
Briefly: Plasma kallikrein inhibition assay, chromogenic substrate S-2302 (Ki). Type of assay: biochemical. The method, then:
as §1
Plasma kallikrein determinations were made in 0.1 M sodium phosphate buffer at a pH of 7.5 containing 0.1-0.2 M sodium chloride and 0.5% PEG 8000. Determinations were made using purified human plasma kallikrein (Enzyme Research Laboratories) at a final assay concentration of 200 pM and the synthetic substrate S-2302 (H-(D)-Pro-Phe-Arg-pNA; Chromogenix) at a concentration of 0.00008-0.0004 M.
as §2, §3, §4

Counter-ions that a name gives are not always drawn.

T2 sequence (P03952 391-638 limits assumed): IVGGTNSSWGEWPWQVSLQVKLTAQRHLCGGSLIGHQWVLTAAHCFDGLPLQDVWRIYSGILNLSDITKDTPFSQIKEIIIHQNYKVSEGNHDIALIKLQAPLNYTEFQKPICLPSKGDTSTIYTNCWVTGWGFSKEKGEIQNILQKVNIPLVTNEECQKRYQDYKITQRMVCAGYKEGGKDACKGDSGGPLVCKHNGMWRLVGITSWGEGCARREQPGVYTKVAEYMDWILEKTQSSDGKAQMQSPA
T2 sequence (P03952 20-390 partner limits assumed): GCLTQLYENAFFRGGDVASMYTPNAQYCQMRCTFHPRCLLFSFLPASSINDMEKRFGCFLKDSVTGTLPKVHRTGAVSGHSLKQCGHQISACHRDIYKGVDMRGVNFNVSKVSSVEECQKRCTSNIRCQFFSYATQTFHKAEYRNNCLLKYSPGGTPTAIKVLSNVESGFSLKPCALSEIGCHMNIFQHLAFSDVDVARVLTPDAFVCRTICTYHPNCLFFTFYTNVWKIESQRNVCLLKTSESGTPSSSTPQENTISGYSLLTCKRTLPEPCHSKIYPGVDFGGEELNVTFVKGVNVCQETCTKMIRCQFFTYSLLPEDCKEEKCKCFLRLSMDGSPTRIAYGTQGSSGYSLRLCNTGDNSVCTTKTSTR
T1 sequence (P03951 388-625 limits assumed): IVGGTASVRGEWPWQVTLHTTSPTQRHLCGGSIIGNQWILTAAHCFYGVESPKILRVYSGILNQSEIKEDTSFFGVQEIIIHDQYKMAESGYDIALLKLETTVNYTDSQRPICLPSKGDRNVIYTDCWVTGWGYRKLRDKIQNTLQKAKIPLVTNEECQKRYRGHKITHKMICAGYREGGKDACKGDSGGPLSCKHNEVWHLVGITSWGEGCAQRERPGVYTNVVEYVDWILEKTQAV
T1 sequence (P03951 19-387 partner limits assumed): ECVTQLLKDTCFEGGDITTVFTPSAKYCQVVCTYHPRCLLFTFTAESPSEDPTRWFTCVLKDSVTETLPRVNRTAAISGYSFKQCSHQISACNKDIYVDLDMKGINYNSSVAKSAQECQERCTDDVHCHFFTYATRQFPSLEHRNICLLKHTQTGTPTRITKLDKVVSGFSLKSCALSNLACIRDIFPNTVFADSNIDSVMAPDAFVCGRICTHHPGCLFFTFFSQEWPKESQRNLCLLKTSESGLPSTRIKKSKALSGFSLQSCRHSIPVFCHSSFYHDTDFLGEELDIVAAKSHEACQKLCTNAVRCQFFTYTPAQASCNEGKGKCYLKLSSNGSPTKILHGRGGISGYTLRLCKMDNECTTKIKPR

As a reminder, the Ki is the dissociation constant of the complex between target and ligand, obtained from inhibition or displacement. Low readings indicate tighter binding, high ones weaker binding. With `C[C@@H]1CCC[C@H](N2CCC(c3c(OC(F)F)ccc(Cl)c3F)=CC2=O)c2cc(ccn2)-c2c(cnn2C(F)F)NC1=O` [Example 21, (9R,13S)-13-{4-[3-chloro-6-(difluoromethoxy)-2-fluorophenyl]-6-oxo-1,2,3,6-tetrahydropyridin-1-yl}-3-(difluoromethyl)-9-methyl-3,4,7,15-tetraazatricyclo[12.3.1.0^2,6]octadeca-1(18),2(6),4,14,16-pentaen-8-one], the inhibition constant Ki in assay [1] was found to be 0.69 nM; in assay [2] it was 40 nM.
Taken in the same sequence, the figures for `C[C@@H]1CCC[C@H](N2CCC(c3c(F)ccc(Cl)c3F)=CC2=O)c2cc(ccn2)-c2c(cnn2C(F)F)NC1=O` [Example 22, (9R,13S)-13-[4-(3-chloro-2,6-difluorophenyl)-6-oxo-1,2,3,6-tetrahydropyridin-1-yl]-3-(difluoromethyl)-9-methyl-3,4,7,15-tetraazatricyclo [12.3.1.0^2,6]octadeca-1(18),2(6),4,14,16-pentaen-8-one] were 8 nM and 50 nM.
Taken in the same sequence, the figures for `C[C@@H]1CCC[C@H](N2CCC(c3c(C(C)(F)F)ccc(Cl)c3F)=CC2=O)c2cc(ccn2)-c2c(cnn2C)NC1=O` [Example 33, (9R,13S)-13-{4-[3-chloro-6-(1,1-difluoroethyl)-2-fluorophenyl]-6-oxo-1,2,3,6-tetrahydropyridin-1-yl}-3,9-dimethyl-3,4,7,15-tetraazatricyclo[12.3.1.0^2,6]octadeca-1(18),2(6),4,14,16-pentaen-8-one] were 5.7 nM and 50 nM.
Taken in the same sequence, the figures for `C[C@@H]1CCC[C@H](N2CCC(c3cc(Cl)ccc3-n3ccnn3)=CC2=O)c2cc(ccn2)-c2nn(CC(=O)O)cc2NC1=O` [Example 12, 2-(13-{4-[5-chloro-2-(1H-1,2,3-triazol-1-yl)phenyl]-6-oxo-1,2,3,6-tetrahydropyridin-1l-yl}-9-methyl-8-oxo-3,4,7,15-tetraazatricyclo[12.3.1.0^2,6]octadeca-1(18),2,5,14,16-pentaen-4-yl)acetic Acid] were 14 nM and 480 nM.
`[2H]C([2H])([2H])n1ncc2c1-c1ccnc(c1)[C@@H](N1CCC(c3cc(Cl)ccc3C#N)=CC1=O)CCC[C@@H](C)C(=O)N2` [Example 32, 4-chloro-2-{1-[(9R,13S)-3-(^2H3)methyl-9-methyl-8-oxo-3,4,7,15-tetraazatricyclo[12.3.1.0^2,6]octadeca-1(18),2(6),4,14,16-pentaen-13-yl]-6-oxo-1,2,3,6-tetrahydropyridin-4-yl}benzonitrile]: the Ki in assay [1] came out at 2.4 nM; in assay [2], 4 nM.
Taken in the same sequence, the figures for `C[C@H]1C(=O)Nc2cnn(C)c2-c2ccnc(c2)[C@@H](N2CCC(c3cc(Cl)ccc3-n3cc(Cl)nn3)=CC2=O)CCC1F` (single isomer, unassigned; isomer b) [Example 15] were 19 nM and 450 nM.
Consider `C[C@@H]1CCC[C@H](N2CCC(c3c(C(F)(F)F)ccc(Cl)c3F)=CC2=O)c2cc(ccn2)-c2c(cnn2C(F)F)NC1=O` [Example 14, (9R,13S)-13-{4-[3-chloro-2-fluoro-6-(trifluoromethyl)phenyl]-6-oxo-1,2,3,6-tetrahydropyridin-1-yl}-3-(difluoromethyl)-9-methyl-3,4,7,15-tetraazatricyclo[12.3.1.0^2,6]octadeca-1(18),2(6),4,14,16-pentaen-8-one], for which the Ki amounted to 1 nM in assay [1] and 110 nM in assay [2].
Consider `C[C@@H]1CCC[C@H](N2CCC(c3c(C(F)(F)F)ccc(Cl)c3F)=CC2=O)c2cccc(c2)-c2c(cnn2C)NC1=O` [Example 49, (9R,13S)-13-{4-[3-chloro-2-fluoro-6-(trifluoromethyl)phenyl]-6-oxo-1,2,3,6-tetrahydropyridin-1-yl}-3,9-dimethyl-3,4,7-triazatricyclo[12.3.1.0^2,6]octadeca-1(18),2(6),4,14,16-pentaen-8-one], for which the Ki in assay [1] is 3.2 nM; in assay [2], 69 nM.
Regarding `[2H]C([2H])([2H])n1ncc2c1-c1cc(ccn1)[C@@H](n1ncc(-c3cc(Cl)ccc3-n3cc(C(F)(F)F)nn3)cc1=O)CCC[C@@H](C)C(=O)N2` [Example 64, (9R,13S)-13-(4-{5-Chloro-2-[4-(trifluoromethyl)-1H-1,2,3-triazol-1-yl]phenyl}-6-oxo-1,6-dihydropyridazin-1-yl)-3-(^2H3)methyl-9-methyl-3,4,7,17-tetraazatricyclo[12.3.1.0^2,6]octadeca-1(18),2(6),4,14,16-pentaen-8-one], the Ki worked out at 0.71 nM in assay [1] and 52.6 nM in assay [2].
Taken in the same sequence, the figures for `C[C@H]1C(=O)Nc2cnn(C)c2-c2ccnc(c2)[C@@H](N2CCC(c3cc(Cl)ccc3-n3cc(Cl)nn3)=CC2=O)CCC1F` (single isomer, unassigned; isomer a) [Example 13] were 0.1 nM and 6 nM.
Taken in the same sequence, the figures for `C[C@@H]1CCC[C@H](N2CCC(c3cc(Cl)ccc3-n3ccnn3)=CC2=O)c2cc(ccn2)-c2c(cnn2C2CC2)NC1=O` (stereo in doubt) [Example 5, 13-{4-[5-chloro-2-(1H-1,2,3-triazol-1-yl)phenyl]-6-oxo-1,2,3,6-tetrahydropyridin-1-yl}-3-cyclopropyl-9-methyl-3,4,7,15-tetraazatricyclo [12.3.1.0^2,6]octadeca-1(18),2(6),4,14,16-pentaen-8-one] were 1.4 nM and 52 nM.
For the compound `C[C@@H]1CCC[C@H](n2ccc(-c3c(OC(F)F)ccc(Cl)c3F)cc2=O)c2cc(ccn2)-c2c(cnn2C)NC1=O` [Example 27, (9R,13S)-13-{4-[3-chloro-6-(difluoromethoxy)-2-fluorophenyl]-2-oxo-1,2-dihydropyridin-1-yl}-3,9-dimethyl-3,4,7,15-tetraazatricyclo[12.3.1.0^2,6]octadeca-1(18),2(6),4,14,16-pentaen-8-one trifluoroacetate], the Ki turned out to be 4.9 nM in assay [1] and 40 nM in assay [2].
Consider `C[C@@H]1CCC[C@H](N2CCC(c3cc(Cl)ccc3-n3cc(Cl)nn3)=CC2=O)c2cc(ccn2)-c2c(cnn2CCO)NC1=O` [Example 35, (9R,13S)-13-{4-[5-chloro-2-(4-chloro-1H-1,2,3-triazol-1-yl)phenyl]-6-oxo-1,2,3,6-tetrahydropyridin-1-yl}-3-(2-hydroxyethyl)-9-methyl-3,4,7,15-tetraazatricyclo[12.3.1.0^2,6]octadeca-1(18),2(6),4,14,16-pentaen-8-one], for which the figures for the Ki in assay [1] and in assay [2] were 0.82 nM and 32 nM, respectively.
Taken in the same sequence, the figures for `C[C@@H]1CCC[C@H](N2CCC(c3cc(Cl)ccc3-n3ccnn3)=CC2=O)c2cc(ccn2)-c2c(cnn2CCO)NC1=O` (stereo in doubt) [Example 11, 13-{4-[5-chloro-2-(1H-1,2,3-triazol-1-yl)phenyl]-6-oxo-1,2,3,6-tetrahydropyridin-1-yl}-3-(2-hydroxyethyl)-9-methyl-3,4,7,15-tetraazatricyclo[12.3.1.0^2,6]octadeca-1(18),2(6),4,14,16-pentaen-8-one] were 5.5 nM and 140 nM.
Taken in the same sequence, the figures for `[2H]C([2H])([2H])n1ncc2c1-c1ccnc(c1)[C@@H](N1CCC(c3cc(Cl)ccc3-n3cc(Cl)nn3)=CC1=O)CCC[C@@H](C)C(=O)N2` [Example 17, (9R,13S)-13-{4-[5-chloro-2-(4-chloro-1H-1,2,3-triazol-1-yl)phenyl]-6-oxo-1,2,3,6-tetrahydropyridin-1-yl}-3-(^2H3)methyl-9-methyl-3,4,7,15-tetraazatricyclo[12.3.1.0^2,6]octadeca-1(18),2(6),4,14,16-pentaen-8-one] were 0.15 nM and 10 nM.
Taken in the same sequence, the figures for `C[C@@H]1CCC[C@H](N2CCC(c3c(Cl)ccc(Cl)c3F)=CC2=O)c2cc(ccn2)-c2c(cnn2C(F)F)NC1=O` [Example 31, (9R,13S)-13-[4-(3,6-dichloro-2-fluorophenyl)-6-oxo-1,2,3,6-tetrahydropyridin-1-yl]-3-(difluoromethyl)-9-methyl-3,4,7,15-tetraazatricyclo [12.3.1.0^2,6]octadeca-1(18),2(6),4,14,16-pentaen-8-one] were 1.9 nM and 11 nM.
Consider `C[C@@H]1CCC[C@H](N2CCC(c3c(C(F)F)ccc(Cl)c3F)=CC2=O)c2cc(ccn2)-c2c(cnn2C)NC1=O` [Example 26, (9R,13S)-13-{4-[3-chloro-6-(difluoromethyl)-2-fluorophenyl]-6-oxo-1,2,3,6-tetrahydropyridin-1-yl}-3,9-dimethyl-3,4,7,15-tetraazatricyclo [12.3.1.0^2,6]octadeca-1(18),2(6),4,14,16-pentaen-8-one], for which the values for the Ki in assay [1] and in assay [2] were 0.48 nM and 5 nM, respectively.
